Experimental data taken from paper PMC4685510, “A Cell Biologist’s Field Guide to Aurora Kinase Inhibitors” (Frontiers in Oncology, 2015).

Tests used:
Test in all cases: biochemical
Assay type in all cases: biochemical
[1] = target: 363 human kinases (including Aurora A/B/C) (Homo sapiens, UniProt O75116); details: ROCK2; for remaining activity at 0.1 µM: 100 nM; for remaining activity at 0.1 µM / remaining activity at 0.5 µM: read-out: % Enzyme Activity (relative to DMSO controls)
Text: (§1) However, the Aurora A/B selectivity ratios derived from our in vitro and in vivo data can be compared to prioritize inhibitors.

[2] = target: T1, 363 human kinases (including Aurora A/B/C) (Homo sapiens, UniProt Q96BR1); details: SGK3/SGKL; for remaining activity at 0.1 µM: 100 nM; for remaining activity at 0.1 µM / remaining activity at 0.5 µM: read-out: % Enzyme Activity (relative to DMSO controls)
T1 sequence (Q96BR1 1-496): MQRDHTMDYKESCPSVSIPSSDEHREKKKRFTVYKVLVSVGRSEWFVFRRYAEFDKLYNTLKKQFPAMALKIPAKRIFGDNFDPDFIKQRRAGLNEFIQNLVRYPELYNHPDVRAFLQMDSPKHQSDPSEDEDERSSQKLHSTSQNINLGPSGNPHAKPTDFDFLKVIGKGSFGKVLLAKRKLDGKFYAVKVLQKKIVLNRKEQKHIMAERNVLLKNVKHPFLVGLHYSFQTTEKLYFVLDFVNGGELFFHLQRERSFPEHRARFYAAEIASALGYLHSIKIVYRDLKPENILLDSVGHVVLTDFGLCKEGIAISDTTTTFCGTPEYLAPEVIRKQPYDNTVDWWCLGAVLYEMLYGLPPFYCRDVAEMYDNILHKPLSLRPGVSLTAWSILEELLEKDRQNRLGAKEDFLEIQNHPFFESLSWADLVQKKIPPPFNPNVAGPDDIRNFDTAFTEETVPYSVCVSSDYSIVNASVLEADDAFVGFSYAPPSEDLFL
Text: as §1

[3] = target: T2, 363 human kinases (including Aurora A/B/C) (Homo sapiens, UniProt Q9UHD2); details: TBK1; for remaining activity at 0.1 µM: 100 nM; for remaining activity at 0.1 µM / remaining activity at 0.5 µM: read-out: % Enzyme Activity (relative to DMSO controls)
T2 sequence (Q9UHD2 1-729): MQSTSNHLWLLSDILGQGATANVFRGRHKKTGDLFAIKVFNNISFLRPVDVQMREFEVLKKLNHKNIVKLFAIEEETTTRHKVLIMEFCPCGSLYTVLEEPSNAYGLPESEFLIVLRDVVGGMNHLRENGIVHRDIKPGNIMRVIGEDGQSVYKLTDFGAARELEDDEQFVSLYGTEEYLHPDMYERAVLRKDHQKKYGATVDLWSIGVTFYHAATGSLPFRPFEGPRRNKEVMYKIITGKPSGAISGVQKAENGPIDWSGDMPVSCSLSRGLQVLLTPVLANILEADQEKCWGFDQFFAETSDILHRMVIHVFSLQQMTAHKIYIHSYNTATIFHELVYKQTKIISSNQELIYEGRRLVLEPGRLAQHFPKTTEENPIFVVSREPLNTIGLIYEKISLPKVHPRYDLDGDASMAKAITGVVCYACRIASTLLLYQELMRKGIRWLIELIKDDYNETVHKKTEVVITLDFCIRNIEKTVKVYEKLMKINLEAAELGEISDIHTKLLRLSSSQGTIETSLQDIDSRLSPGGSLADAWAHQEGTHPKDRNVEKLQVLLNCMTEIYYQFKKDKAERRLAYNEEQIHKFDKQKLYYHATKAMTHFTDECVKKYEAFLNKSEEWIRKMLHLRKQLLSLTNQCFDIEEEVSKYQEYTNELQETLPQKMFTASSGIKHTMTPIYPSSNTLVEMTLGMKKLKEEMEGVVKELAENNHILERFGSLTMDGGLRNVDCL
Text: as §1

[4] = target: T3, 363 human kinases (including Aurora A/B/C) (Homo sapiens, UniProt Q8WTQ7); details: GRK7; for remaining activity at 0.1 µM: 100 nM; for remaining activity at 0.1 µM / remaining activity at 0.5 µM: read-out: % Enzyme Activity (relative to DMSO controls)
T3 sequence (Q8WTQ7 1-553): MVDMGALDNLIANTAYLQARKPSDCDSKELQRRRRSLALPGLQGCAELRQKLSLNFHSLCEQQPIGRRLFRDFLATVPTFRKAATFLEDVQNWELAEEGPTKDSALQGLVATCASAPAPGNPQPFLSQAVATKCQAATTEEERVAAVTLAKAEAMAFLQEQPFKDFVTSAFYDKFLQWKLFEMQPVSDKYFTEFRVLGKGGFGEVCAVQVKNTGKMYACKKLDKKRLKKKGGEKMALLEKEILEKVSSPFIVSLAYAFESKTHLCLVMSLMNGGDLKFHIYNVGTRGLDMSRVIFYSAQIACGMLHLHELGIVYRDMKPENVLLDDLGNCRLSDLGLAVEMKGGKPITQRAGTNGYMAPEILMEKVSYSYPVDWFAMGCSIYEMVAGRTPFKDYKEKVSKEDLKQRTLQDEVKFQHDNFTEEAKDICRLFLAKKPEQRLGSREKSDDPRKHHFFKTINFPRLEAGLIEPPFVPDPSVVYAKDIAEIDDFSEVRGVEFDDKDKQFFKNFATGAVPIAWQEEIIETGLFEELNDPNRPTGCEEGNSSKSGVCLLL
Text: as §1

[5] = target: 363 human kinases (including Aurora A/B/C) (Homo sapiens, UniProt Q9Y463); details: DYRK1B, [ATP] 20 µM; for remaining activity at 0.1 µM: 100 nM; for remaining activity at 0.1 µM / remaining activity at 0.5 µM: read-out: % Enzyme Activity (relative to DMSO controls)
Text: as §1

[6] = target: 363 human kinases (including Aurora A/B/C) (Homo sapiens, UniProt Q9Y2H1); details: STK38L/NDR2; for remaining activity at 0.1 µM: 100 nM; for remaining activity at 0.1 µM / remaining activity at 0.5 µM: read-out: % Enzyme Activity (relative to DMSO controls)
363 human kinases (including Aurora A/B/C) (Homo sapiens, UniProt Q9Y2H1), sequence (Q9Y2H1 whole entry): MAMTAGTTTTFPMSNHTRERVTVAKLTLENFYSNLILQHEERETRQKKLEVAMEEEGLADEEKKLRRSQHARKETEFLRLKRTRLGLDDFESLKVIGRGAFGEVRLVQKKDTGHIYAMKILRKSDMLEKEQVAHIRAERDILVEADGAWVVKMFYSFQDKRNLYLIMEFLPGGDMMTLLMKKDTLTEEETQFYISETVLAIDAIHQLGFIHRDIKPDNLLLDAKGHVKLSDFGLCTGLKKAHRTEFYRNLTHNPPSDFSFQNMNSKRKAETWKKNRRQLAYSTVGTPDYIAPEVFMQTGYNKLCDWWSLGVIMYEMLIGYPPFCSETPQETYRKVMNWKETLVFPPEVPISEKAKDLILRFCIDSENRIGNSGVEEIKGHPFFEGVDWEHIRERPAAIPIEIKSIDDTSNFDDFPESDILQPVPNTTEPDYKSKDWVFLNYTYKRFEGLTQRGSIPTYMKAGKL
Text: as §1

363 human kinases (including Aurora A/B/C) (Homo sapiens, UniProt O75116), sequence (O75116 whole entry): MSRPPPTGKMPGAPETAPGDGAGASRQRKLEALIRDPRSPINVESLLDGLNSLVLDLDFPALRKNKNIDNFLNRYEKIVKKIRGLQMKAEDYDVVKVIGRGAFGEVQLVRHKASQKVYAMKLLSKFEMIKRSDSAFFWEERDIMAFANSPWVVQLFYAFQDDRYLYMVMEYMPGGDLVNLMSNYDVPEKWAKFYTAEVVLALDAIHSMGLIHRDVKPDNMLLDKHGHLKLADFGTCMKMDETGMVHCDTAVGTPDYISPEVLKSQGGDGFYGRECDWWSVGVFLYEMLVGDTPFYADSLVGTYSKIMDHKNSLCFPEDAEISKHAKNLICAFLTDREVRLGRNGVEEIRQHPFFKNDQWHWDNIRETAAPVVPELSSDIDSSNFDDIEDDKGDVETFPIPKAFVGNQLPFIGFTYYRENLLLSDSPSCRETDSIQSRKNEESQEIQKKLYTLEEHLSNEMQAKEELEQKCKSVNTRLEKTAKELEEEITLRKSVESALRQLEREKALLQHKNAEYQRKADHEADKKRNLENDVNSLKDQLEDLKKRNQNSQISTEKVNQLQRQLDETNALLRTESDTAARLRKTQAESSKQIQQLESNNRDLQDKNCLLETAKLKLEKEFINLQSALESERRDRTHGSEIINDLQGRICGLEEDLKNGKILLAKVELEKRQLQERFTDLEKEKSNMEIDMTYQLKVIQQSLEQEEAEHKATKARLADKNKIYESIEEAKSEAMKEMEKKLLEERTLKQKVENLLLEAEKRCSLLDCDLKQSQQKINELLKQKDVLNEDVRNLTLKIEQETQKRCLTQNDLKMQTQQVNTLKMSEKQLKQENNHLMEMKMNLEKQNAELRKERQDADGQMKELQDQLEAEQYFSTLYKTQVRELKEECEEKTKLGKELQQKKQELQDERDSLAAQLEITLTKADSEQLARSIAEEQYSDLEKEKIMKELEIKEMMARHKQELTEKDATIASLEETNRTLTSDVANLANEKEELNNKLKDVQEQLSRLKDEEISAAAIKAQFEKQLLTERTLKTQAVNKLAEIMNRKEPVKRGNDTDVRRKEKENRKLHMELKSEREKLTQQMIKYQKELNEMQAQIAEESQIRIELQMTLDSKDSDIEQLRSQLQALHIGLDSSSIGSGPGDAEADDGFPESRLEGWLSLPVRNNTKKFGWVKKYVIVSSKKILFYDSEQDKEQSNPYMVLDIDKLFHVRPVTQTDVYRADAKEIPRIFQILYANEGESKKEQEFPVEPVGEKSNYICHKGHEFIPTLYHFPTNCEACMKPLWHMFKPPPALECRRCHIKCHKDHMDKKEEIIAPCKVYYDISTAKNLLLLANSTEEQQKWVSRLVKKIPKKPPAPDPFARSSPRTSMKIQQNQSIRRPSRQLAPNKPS
363 human kinases (including Aurora A/B/C) (Homo sapiens, UniProt Q9Y463), sequence (Q9Y463 whole entry): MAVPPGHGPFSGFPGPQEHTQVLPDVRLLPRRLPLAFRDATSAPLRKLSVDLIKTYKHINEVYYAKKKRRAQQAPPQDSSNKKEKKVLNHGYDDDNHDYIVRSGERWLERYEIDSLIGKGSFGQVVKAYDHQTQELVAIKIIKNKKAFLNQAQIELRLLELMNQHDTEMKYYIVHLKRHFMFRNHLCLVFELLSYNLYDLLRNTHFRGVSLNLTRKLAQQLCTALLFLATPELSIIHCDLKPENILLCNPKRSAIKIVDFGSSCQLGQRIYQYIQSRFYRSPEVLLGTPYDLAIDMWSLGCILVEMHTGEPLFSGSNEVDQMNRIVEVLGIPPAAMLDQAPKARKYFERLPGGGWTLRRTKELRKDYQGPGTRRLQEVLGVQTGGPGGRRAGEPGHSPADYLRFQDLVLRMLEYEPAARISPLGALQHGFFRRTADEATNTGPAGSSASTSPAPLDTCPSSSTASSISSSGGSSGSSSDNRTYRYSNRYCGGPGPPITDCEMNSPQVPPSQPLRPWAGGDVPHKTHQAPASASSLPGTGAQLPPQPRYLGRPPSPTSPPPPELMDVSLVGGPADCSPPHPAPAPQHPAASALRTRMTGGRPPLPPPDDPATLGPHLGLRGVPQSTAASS

Question: What does the source list for CCn1cc(-c2ccnc3[nH]c(-c4cccc(CN(C)C)c4)cc23)c(-c2ccc(NC(=O)N(C)C)cc2)n1 [GSK1070916]?
Answer: remaining activity at 0.1 µM [1]: 71.8%; remaining activity at 0.1 µM [2]: 105%; remaining activity at 0.1 µM [3]: 93.7%; remaining activity at 0.1 µM [4]: 100%; remaining activity at 0.1 µM [5]: 99.6%; remaining activity at 0.1 µM [6]: 95.7%

Question: What does the source list for O=C(O)[C@]1(Cc2cccc(Nc3nccs3)n2)CC[C@@H](Oc2cccc(Cl)c2F)CC1 [MK-5108]?
Answer: remaining activity at 0.1 µM [1]: 99.6%; remaining activity at 0.5 µM ([1]; 500 nM): 98.2%; remaining activity at 0.1 µM [2]: 106%; remaining activity at 0.5 µM ([2]; 500 nM): 105%; remaining activity at 0.1 µM [3]: 108%; remaining activity at 0.5 µM ([3]; 500 nM): 88.6%; remaining activity at 0.1 µM [4]: 98.7%; remaining activity at 0.5 µM ([4]; 500 nM): 94.2%; remaining activity at 0.1 µM [5]: 91.7%; remaining activity at 0.5 µM ([5]; 500 nM): 68.3%; remaining activity at 0.1 µM [6]: 99.6%; remaining activity at 0.5 µM ([6]; 500 nM): 97.8%

Question: Which results are given for O=C(c1cccc(Cl)c1F)N1CCN(Cc2cccc(Nc3nccs3)n2)CC1 [MK-8745]?
Answer: % Enzyme Activity (relative to DMSO controls) ([1]; 500 nM): 91.55%; remaining activity at 0.5 µM ([1]; 500 nM): 92.6%; % Enzyme Activity (relative to DMSO controls) ([2]; 500 nM): 98.27%; remaining activity at 0.5 µM ([2]; 500 nM): 99.7%; % Enzyme Activity (relative to DMSO controls) ([3]; 500 nM): 102.60%; remaining activity at 0.5 µM ([3]; 500 nM): 105%; % Enzyme Activity (relative to DMSO controls) ([4]; 500 nM): 97.48%; remaining activity at 0.5 µM ([4]; 500 nM): 101%; % Enzyme Activity (relative to DMSO controls) ([5]; 500 nM): 94.80%; remaining activity at 0.5 µM ([5]; 500 nM): 95.3%; % Enzyme Activity (relative to DMSO controls) ([6]; 500 nM): 96.64%; remaining activity at 0.5 µM ([6]; 500 nM): 98.4%
